The values below come from US20220175798A1, “COMPOSITIONS COMPRISING OXYGENATED CHOLESTEROL SULFATE AND AT LEAST ONE OF POLYALKYLENE GLYCOL, CARBOXYMETHYL CELLULOSE AND POLYOXYLGLYCERIDE” (Durect Corporation, priority 2016, published 2022).

Each structure is given as a SMILES string.

Data set [1] is described as follows: Stress study of suspension formulation with hydrogen peroxide. Type of data set: physicochemical. Conditions: stress study of 25HC3S suspension formulation with hydrogen peroxide. The source says: L-Methionine was initially added as an antioxidant. […] Therefore, L-Methionine was removed from the preferred suspension formulation. 25HC3S in Vehicle PEG 3350 (without L-Methionine) was used for further syringeability study (Studies #12 and 13).

A short description of data set [2]: Single SC injection PK study in Beagle dogs. Type of data set: in vivo. The note with it: single SC dose 25 mg/kg. As for the experimental part:
The subjects for the study were 5 male Beagle dogs (4-7 years of age; 8-11 kg). […] All animals were in healthy condition and admitted to the study.
The Vehicle was a solution of 3% (w/v) polyethylene glycol 3350, 0.3% (w/v) polysorbate 80, 0.7% (v/v) sodium chloride, 0.15% (w/v) L-methionine, 10 mM sodium phosphate buffer at pH 7.4 in water. 25HC3 S was mixed into the Vehicle solution to result in a drug concentration of 25 mg/mL. […] The formulated test article was used within 24 hours of constitution.
Each dog received a single subcutaneous injection. The dose level of 25 mg/kg was administered in a dose volume of 1 mL/kg. Whole blood samples were collected via the jugular vein at pre-dose, 0.5, 1, 2, 4, 8, 12, 24, and 32 hours (h) post dose. Blood samples were placed into tubes containing K2EDTA. The blood was gently mixed to assure distribution of the anti-coagulant and the resulting plasma samples underwent analyses to quantify 25HC3S levels. […] Assessments included, but were not limited to, evidence of pain on injection, assessment of activity, posture, respiration, emesis, seizure, hydration status, injection site assessment.

Data set [3] concerns renal ischemia/reperfusion injury. As to the kind of experiment: Renal ischemia/reperfusion injury in rats. The note with it: 50 mg/kg daily for 4 days oral gavage; Day 3; vs vehicle; not statistically significant. The data set is classed as in vivo, Lewis rats. As for the experimental part:
The subjects for the study were 18 adult male Lewis rats (9-11 weeks of age; 225-250 g). […] All animals were in healthy condition and admitted to the study.
The Vehicle was a solution of 0.5% (w/v) CMC and 0.05% (v/v) Tween-80 in water. Powdered 25HC3 S was constituted into the vehicle solution to result in a drug concentration of 20 mg/mL. The suspensions were homogenized at 20,000 rotations per minute (rpm) for approximately 5 minutes after being combined, with 10 second breaks every 30-40 seconds and swirled before dosing to maintain homogeneity. The formulated test article was prepared weekly and kept at room temperature.
All rats were anesthetized with intraperitoneal injection of pentobarbital (40 mg/kg). Ischemia of the left kidney was achieved by transient occlusion of the left renal artery and vein, and ureter for 50 min with a vascular micro-clip. The skin was temporarily closed during the ischemia period and the rats were put on a heating pad maintained at a temperature of 37° C. At reperfusion, the right kidney was removed before permanently closing the abdomen with 4-0 silk suture Animals were treated with vehicle (N=6) or 25HC3S (N=12) daily for 4 days, starting on the day before the surgery, (pre-treatment, Day −1) and for 2 days after the surgery. […] Serum creatinine (sCr) levels and BUN levels were examined on Day −2 (baseline), Day 3, and/or Day 7 after the surgery.

Data set [4] in a line: Single SC or IM injection PK study in rats. The data set is classed as in vivo, Sprague Dawley rats. As for the experimental part: The subjects for the study were 15 male Sprague Dawley rats (8-11 weeks of age; 280-327 g at time of dosing). […] All animals were in healthy condition and admitted to the study.
The Vehicle was a solution of 3% (w/v) polyethylene glycol 3350, 0.3% (v/v) polysorbate 80, 0.7% (w/v) sodium chloride, 0.15% (w/v) L-methionine, 10 mM sodium phosphate buffer at pH 7.4 in water. 25HC3S was mixed into the Vehicle solution to result in drug concentrations of 25, 5 and 10 mg/mL. […] The formulated test article was used within 24 hours of constitution.
Each rat received a single IM or SC injection (2 doses) (N=5/group). The dose level for the IM injection was 25 mg/kg was administered in a dose volume of 1 mL/kg. There were two dose groups for the SC injection route. The dose levels for the SC injections were 25 and 50 mg/kg with a dose volume of […] for both groups (drug concentrations were 5 and 10 mg/mL, respectively). Whole blood samples were collected via the jugular vein or the submandibular vein at pre-dose, 0.5, 1, 2, 4, 8, 12, 24, and 32 hours (h) post dose from each rat; however, the last blood collection may have been collected by terminal cardiac puncture with the animals deeply anesthetized by isoflurane. Blood samples were placed into tubes containing K2EDTA. The blood was gently mixed to assure distribution of the anti-coagulant and the resulting plasma samples underwent analyses to quantify 25HC3 S levels. […] Assessments included, but were not limited to, assessment of activity, posture, respiration, emesis, seizure, hydration status, injection site assessment and overall body condition.

For the compound `C[C@H](CCCC(C)(C)O)[C@H]1CC[C@H]2[C@@H]3CC=C4C[C@@H](OS(=O)(=O)[O-])CC[C@]4(C)[C@H]3CC[C@]12C.[Na+]` [Formulation 25HC3S, 5-cholesten-3, 25-diol, 3-sulfate], the oxidative degradation entry in data set [1] is recorded as “oxidative degradation did not occur”. The clinical signs entry in data set [2] and in data set [4] (single IM or SC injection) was “no observable clinical signs” in each case. For the same compound, the “mean time to maximum plasma drug concentration” value is 23.2 h in data set [2] (PEG 3350 suspension 25 mg/mL), 10.4 (±2.2) hr in data set [4] (IM 25 mg/kg), 7.6 (±4.6) hrs in data set [4] (SC 25 mg/kg) and 7.2 (±1.8) hrs in data set [4] (SC 50 mg/kg). The “mean concentration at 32 h” value in data set [2] (plasma) was 157.6 ng/mL; in data set [4] (SC 50 mg/kg), 34.2 (±13.8) ng/mL. For the same compound, in data set [3], the “reduction of BUN levels” value stood at 5%. In addition, the “reduction of sCr levels” value in data set [3] is reported as about 20%. Moreover, the mean maximum concentration is 101.9 (±17.1) ng/mL in data set [4] (IM 25 mg/kg), 127.1 (±93.8) ng/mL in data set [4] (SC 25 mg/kg) and 76 (±15.9) ng/mL in data set [4] (SC 50 mg/kg).
